# From ChEMBL document CHEMBL3885861, “Open TG-GATES”
# Species on record: Rattus norvegicus
# Assay: Open TG-GATES - Regimen: Daily Repeat
# Type: toxicity, organism-based, Sprague-Dawley
# Parameters: regimen Daily Repeat, gender Male, age 6 weeks
# Conditions: in vivo, iv, route intravenous injection; for KIDNEY_L / KIDNEY_R / KIDNEY_TOTAL: tissue Kidney; for LIVER: tissue Liver; for ALP / ALT / AST / CRE / DBIL / GLC / IP / K / LDH / PL / RALB / TBIL / TC / TG / TP / gamma-GTP / Na / Ca / BUN: tissue Plasma
# [1] = 3 mg/kg, 72 h, dose level Middle, time 3 day
# [2] = 3 mg/kg, 72 h, tissue Blood, dose level Middle, time 3 day
# [3] = 3 mg/kg, […], dose level Middle, time 7 day
# [4] = 3 mg/kg, […], dose level Middle, time 14 day
# [5] = 3 mg/kg, […], dose level Middle, time 28 day
# [6] = 3 mg/kg, […], tissue Blood, dose level Middle, time 7 day
# [7] = 3 mg/kg, […], tissue Blood, dose level Middle, time 14 day
# [8] = 3 mg/kg, […], tissue Blood, dose level Middle, time 28 day
# [9] = 10 mg/kg, 72 h, dose level High, time 3 day
# [10] = 10 mg/kg, 72 h, tissue Blood, dose level High, time 3 day
# [11] = 10 mg/kg, […], dose level High, time 7 day
# [12] = 10 mg/kg, […], dose level High, time 14 day
# [13] = 10 mg/kg, […], dose level High, time 28 day
# [14] = 10 mg/kg, […], tissue Blood, dose level High, time 7 day
# [15] = 10 mg/kg, […], tissue Blood, dose level High, time 14 day
# [16] = 10 mg/kg, […], tissue Blood, dose level High, time 28 day
sequence,measurement,setting,value
CARBOPLATIN,TERMINAL_BW,[1],220.6 g
same,APTT,[2],24.1 s
same,Bas,[2],0%
same,Eos,[2],1.2%
same,Fbg,[2],324.4 mg/dL
same,Ht,[2],41.2%
same,Lym,[2],74.6%
same,MCHC,[2],32.6%
same,MCV,[2],62.7 fL
same,Mono,[2],3%
same,Neu,[2],20.6%
same,PT,[2],16.5 s
same,Plat,[2],127.4 x10_4/uL
same,RBC,[2],657.4 x10_4/ul
same,Ret,[2],4%
same,WBC,[2],89.9 x10_2/uL
same,KIDNEY_L,[1],0.9 g
same,KIDNEY_R,[1],0.9 g
same,KIDNEY_TOTAL,[1],1.9 g
same,LIVER,[1],9.8 g
same,ALP,[1],1530.2 IU/L
same,ALT,[1],43 IU/L
same,AST,[1],74.8 IU/L
same,CRE,[1],0.2 mg/dL
same,DBIL,[1],0 mg/dL
same,GLC,[1],173.6 mg/dL
same,IP,[1],7.1 mg/dL
same,K,[1],4.7 meq/L
same,LDH,[1],185.8 IU/L
same,PL,[1],129.2 mg/dL
same,RALB,[1],3.1 g/dL
same,TBIL,[1],0.004 mg/dL
same,TC,[1],65 mg/dL
same,TG,[1],104.6 mg/dL
same,TP,[1],5.5 g/dL
same,gamma-GTP,[1],1.4 IU/L
same,TERMINAL_BW,[3],244.7 g
same,TERMINAL_BW,[4],304.5 g
same,TERMINAL_BW,[5],349.4 g
same,APTT,[6],23.6 s
same,Bas,[6],0%
same,Eos,[6],0.8%
same,Fbg,[6],296.2 mg/dL
same,MCHC,[6],32.4%
same,MCV,[6],62.2 fL
same,Mono,[6],2.4%
same,Neu,[6],16.6%
same,Plat,[6],130.4 x10_4/uL
same,RBC,[6],649.2 x10_4/ul
same,Ret,[6],4.6%
same,WBC,[6],97.3 x10_2/uL
same,APTT,[7],25.4 s
same,Bas,[7],0%
same,Eos,[7],0.6%
same,Fbg,[7],327 mg/dL
same,Hb,[7],14 g/dL
same,Ht,[7],41.1%
same,Lym,[7],86%
same,MCHC,[7],34%
same,MCV,[7],61.4 fL
same,Mono,[7],3.2%
same,Neu,[7],9.2%
same,Plat,[7],119.2 x10_4/uL
same,RBC,[7],670 x10_4/ul
same,Ret,[7],2.8%
same,WBC,[7],100.3 x10_2/uL
same,APTT,[8],26.7 s
same,Bas,[8],0%
same,Eos,[8],0.8%
same,Fbg,[8],332.2 mg/dL
same,Ht,[8],42.1%
same,Lym,[8],83%
same,MCH,[8],19 pg
same,MCHC,[8],35.1%
same,MCV,[8],54.2 fL
same,Mono,[8],2.8%
same,Plat,[8],118.9 x10_4/uL
same,RBC,[8],777.6 x10_4/ul
same,Ret,[8],1.9%
same,WBC,[8],87.9 x10_2/uL
same,KIDNEY_L,[3],1.1 g
same,KIDNEY_R,[3],1.1 g
same,KIDNEY_TOTAL,[3],2.1 g
same,KIDNEY_L,[4],1.3 g
same,KIDNEY_R,[4],1.3 g
same,KIDNEY_TOTAL,[4],2.5 g
same,KIDNEY_L,[5],1.3 g
same,KIDNEY_R,[5],1.3 g
same,KIDNEY_TOTAL,[5],2.6 g
same,LIVER,[3],11.2 g
same,LIVER,[4],13.5 g
same,LIVER,[5],13.9 g
same,ALP,[3],1757.2 IU/L
same,ALT,[3],40.6 IU/L
same,AST,[3],82.6 IU/L
same,CRE,[3],0.2 mg/dL
same,DBIL,[3],0 mg/dL
same,GLC,[3],169.6 mg/dL
same,IP,[3],7 mg/dL
same,K,[3],4.7 meq/L
same,LDH,[3],186 IU/L
same,Na,[3],140 meq/L
same,PL,[3],143 mg/dL
same,RALB,[3],3.1 g/dL
same,TBIL,[3],0.006 mg/dL
same,TC,[3],70.4 mg/dL
same,TG,[3],110 mg/dL
same,TP,[3],5.6 g/dL
same,gamma-GTP,[3],1.6 IU/L
same,ALP,[4],1299.2 IU/L
same,ALT,[4],41.4 IU/L
same,AST,[4],84.2 IU/L
same,CRE,[4],0.2 mg/dL
same,Ca,[4],11 mg/dL
same,DBIL,[4],0 mg/dL
same,GLC,[4],170.4 mg/dL
same,IP,[4],6.8 mg/dL
same,K,[4],4.4 meq/L
same,LDH,[4],147 IU/L
same,PL,[4],148 mg/dL
same,RALB,[4],3.2 g/dL
same,TBIL,[4],0.006 mg/dL
same,TC,[4],74.2 mg/dL
same,TG,[4],131.2 mg/dL
same,TP,[4],6 g/dL
same,gamma-GTP,[4],3.4 IU/L
same,ALP,[5],1001.8 IU/L
same,ALT,[5],40.6 IU/L
same,AST,[5],78 IU/L
same,BUN,[5],18 mg/dL
same,CRE,[5],0.2 mg/dL
same,Ca,[5],11 mg/dL
same,DBIL,[5],0 mg/dL
same,GLC,[5],179.6 mg/dL
same,IP,[5],6.1 mg/dL
same,K,[5],4.2 meq/L
same,LDH,[5],131 IU/L
same,PL,[5],134.2 mg/dL
same,RALB,[5],3.2 g/dL
same,TBIL,[5],0.004 mg/dL
same,TC,[5],72.4 mg/dL
same,TG,[5],96 mg/dL
same,TP,[5],6.3 g/dL
same,gamma-GTP,[5],2 IU/L
same,TERMINAL_BW,[9],210.3 g
same,APTT,[10],23.5 s
same,Bas,[10],0%
same,Eos,[10],1.2%
same,Fbg,[10],288 mg/dL
same,Hb,[10],13 g/dL
same,Ht,[10],39.9%
same,Lym,[10],85.8%
same,MCHC,[10],32.7%
same,MCV,[10],62.8 fL
same,Mono,[10],3.2%
same,Neu,[10],8.8%
same,PT,[10],16.4 s
same,Plat,[10],122.5 x10_4/uL
same,RBC,[10],635.4 x10_4/ul
same,Ret,[10],2.7%
same,WBC,[10],75.4 x10_2/uL
same,KIDNEY_L,[9],0.9 g
same,KIDNEY_R,[9],1 g
same,KIDNEY_TOTAL,[9],1.9 g
same,LIVER,[9],9.3 g
same,ALP,[9],1408.4 IU/L
same,ALT,[9],33.8 IU/L
same,BUN,[9],16.4 mg/dL
same,CRE,[9],0.2 mg/dL
same,DBIL,[9],0.002 mg/dL
same,GLC,[9],170.4 mg/dL
same,IP,[9],7 mg/dL
same,K,[9],4.6 meq/L
same,Na,[9],140.2 meq/L
same,PL,[9],129.6 mg/dL
same,RALB,[9],3.1 g/dL
same,TBIL,[9],0.008 mg/dL
same,TC,[9],63.2 mg/dL
same,TG,[9],84.4 mg/dL
same,TP,[9],5.5 g/dL
same,gamma-GTP,[9],1.4 IU/L
same,TERMINAL_BW,[11],215.5 g
same,TERMINAL_BW,[12],246.4 g
same,TERMINAL_BW,[13],260.5 g
same,APTT,[14],27.1 s
same,Bas,[14],0%
same,Eos,[14],0.8%
same,Fbg,[14],285.8 mg/dL
same,Hb,[14],13.7 g/dL
same,Ht,[14],41.4%
same,Lym,[14],83.6%
same,MCV,[14],62.3 fL
same,Mono,[14],4.8%
same,Neu,[14],9.6%
same,PT,[14],15.7 s
same,Plat,[14],124.5 x10_4/uL
same,RBC,[14],665.8 x10_4/ul
same,Ret,[14],1.5%
same,WBC,[14],46.7 x10_2/uL
same,APTT,[15],26.8 s
same,Bas,[15],0%
same,Eos,[15],0.4%
same,Fbg,[15],299.6 mg/dL
same,Hb,[15],14.1 g/dL
same,Lym,[15],80.8%
same,MCHC,[15],33.9%
same,MCV,[15],59.3 fL
same,Mono,[15],4.6%
same,Plat,[15],50.2 x10_4/uL
same,RBC,[15],701 x10_4/ul
same,Ret,[15],0.8%
same,WBC,[15],57.1 x10_2/uL
same,APTT,[16],25.4 s
same,Bas,[16],0%
same,Eos,[16],0%
same,Fbg,[16],275.2 mg/dL
same,Hb,[16],11.8 g/dL
same,Ht,[16],33.8%
same,Lym,[16],81%
same,MCHC,[16],34.8%
same,MCV,[16],55.8 fL
same,Mono,[16],3.6%
same,PT,[16],15.6 s
same,Plat,[16],66.5 x10_4/uL
same,RBC,[16],607.8 x10_4/ul
same,Ret,[16],3.1%
same,WBC,[16],60.4 x10_2/uL
same,KIDNEY_L,[11],0.9 g
same,KIDNEY_R,[11],1 g
same,KIDNEY_TOTAL,[11],1.9 g
same,KIDNEY_L,[12],1.1 g
same,KIDNEY_R,[12],1.1 g
same,KIDNEY_TOTAL,[12],2.2 g
same,KIDNEY_L,[13],1.2 g
same,KIDNEY_R,[13],1.2 g
same,KIDNEY_TOTAL,[13],2.4 g
same,LIVER,[11],8.8 g
same,ALP,[11],1401.8 IU/L
same,ALT,[11],41.4 IU/L
same,AST,[11],102 IU/L
same,CRE,[11],0.2 mg/dL
same,DBIL,[11],0.002 mg/dL
same,GLC,[11],170.8 mg/dL
same,IP,[11],7.3 mg/dL
same,K,[11],4.4 meq/L
same,Na,[11],140.4 meq/L
same,PL,[11],118.6 mg/dL
same,RALB,[11],3.2 g/dL
same,TBIL,[11],0.012 mg/dL
same,TC,[11],66 mg/dL
same,TG,[11],38.2 mg/dL
same,TP,[11],6 g/dL
same,gamma-GTP,[11],1 IU/L
same,ALP,[12],1127 IU/L
same,ALT,[12],48 IU/L
same,AST,[12],93.2 IU/L
same,BUN,[12],16.6 mg/dL
same,CRE,[12],0.2 mg/dL
same,DBIL,[12],0 mg/dL
same,GLC,[12],170.4 mg/dL
same,IP,[12],6.6 mg/dL
same,K,[12],4.5 meq/L
same,LDH,[12],161 IU/L
same,PL,[12],139.8 mg/dL
same,RALB,[12],3.2 g/dL
same,TBIL,[12],0.016 mg/dL
same,TC,[12],74.8 mg/dL
same,TG,[12],83.4 mg/dL
same,TP,[12],5.8 g/dL
same,gamma-GTP,[12],1.8 IU/L
same,ALP,[13],682.8 IU/L
same,ALT,[13],40 IU/L
same,AST,[13],97.8 IU/L
same,BUN,[13],22 mg/dL
same,CRE,[13],0.2 mg/dL
same,DBIL,[13],0.016 mg/dL
same,GLC,[13],170 mg/dL
same,IP,[13],6.2 mg/dL
same,K,[13],4.5 meq/L
same,LDH,[13],533 IU/L
same,PL,[13],127.8 mg/dL
same,RALB,[13],3 g/dL
same,TBIL,[13],0.052 mg/dL
same,TC,[13],78.6 mg/dL
same,TG,[13],48.8 mg/dL
same,TP,[13],6 g/dL
same,gamma-GTP,[13],1.8 IU/L
